Source: BindingDB's records for PubMed 1848629 (Georgetown University, 1991)
Values joined by “and” are separate entries in the source; they are usually repeats but may differ in a detail not shown here. Equal entries are not always repeated.

Molecular target: Gamma-aminobutyric acid type B receptor subunit 1 (UniProt Q9Z0U4)
Sequence (Q9Z0U4 whole entry): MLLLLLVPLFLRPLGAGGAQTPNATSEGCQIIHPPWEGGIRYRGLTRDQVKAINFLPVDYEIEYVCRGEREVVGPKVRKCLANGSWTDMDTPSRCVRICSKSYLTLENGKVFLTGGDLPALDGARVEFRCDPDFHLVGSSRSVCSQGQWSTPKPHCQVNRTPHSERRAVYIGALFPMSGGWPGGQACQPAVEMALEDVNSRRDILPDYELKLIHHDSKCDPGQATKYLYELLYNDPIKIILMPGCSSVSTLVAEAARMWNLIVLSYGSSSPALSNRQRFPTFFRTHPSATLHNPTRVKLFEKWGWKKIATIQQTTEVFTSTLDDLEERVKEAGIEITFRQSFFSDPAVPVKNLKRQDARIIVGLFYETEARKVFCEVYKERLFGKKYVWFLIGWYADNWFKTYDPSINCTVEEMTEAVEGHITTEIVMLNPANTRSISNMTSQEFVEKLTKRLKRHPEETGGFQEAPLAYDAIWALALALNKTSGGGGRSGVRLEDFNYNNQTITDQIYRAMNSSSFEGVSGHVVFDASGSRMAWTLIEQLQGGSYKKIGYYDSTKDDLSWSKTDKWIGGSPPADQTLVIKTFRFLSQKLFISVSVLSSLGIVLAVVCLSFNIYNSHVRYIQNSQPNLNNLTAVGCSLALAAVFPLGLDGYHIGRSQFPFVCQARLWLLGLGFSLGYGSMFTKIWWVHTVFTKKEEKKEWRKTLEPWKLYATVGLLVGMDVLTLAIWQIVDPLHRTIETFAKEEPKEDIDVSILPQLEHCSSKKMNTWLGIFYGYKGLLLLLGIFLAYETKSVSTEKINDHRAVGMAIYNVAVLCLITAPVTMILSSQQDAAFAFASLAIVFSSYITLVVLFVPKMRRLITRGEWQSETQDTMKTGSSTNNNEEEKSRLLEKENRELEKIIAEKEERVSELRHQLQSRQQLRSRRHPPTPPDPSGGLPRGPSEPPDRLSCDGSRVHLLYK

| SMILES | Ki |
| --- | --- |
| Cc1nnc2n1-c1ccc(Cl)cc1C(c1ccccc1)=NC2 | 4.5 nM and 5 nM and 6.7 nM and 5.3 nM and 8 nM |
| CC[C@@H](C)N(C)C(=O)c1cc2ccccc2c(-c2ccccc2Cl)n1 [PK 11195] | 1000 nM |
| CN1C(=O)CN=C(c2ccccc2F)c2cc([N+](=O)[O-])ccc21 [Flunitrazepam] | 8.8 nM and 10 nM and 6.1 nM and 5 nM and 7.5 nM |
| CN1C(=O)CN=C(c2ccc(Cl)cc2)c2cc(Cl)ccc21 [Ro5-4864] | 1000 nM |
| CN1C(=O)CN=C(c2ccccc2)c2cc(Cl)ccc21 | 19 nM and 18 nM and 22 nM and 20 nM and 26 nM |

Molecular target: Gamma-aminobutyric acid (GABA) B receptor 1 (Rattus norvegicus, UniProt Q6MFX8)
Sequence (Q6MFX8 whole entry): as the sequence (Q9Z0U4 whole entry) above

| SMILES | Ki |
| --- | --- |
| CCOC(=O)c1ncn2c1CN(C)C(=O)c1cc(F)ccc1-2 [ethyl 12-fluoro-8-methyl-9-oxo-2,4,8-triazatricyclo[8.4.0.0^{2,6}]tetradeca-1(14),3,5,10,12-pentaene-5-carboxylate] | 1 nM and 2 nM and 1.9 nM |
| Cc1nnc2ccc(-c3cccc(C(F)(F)F)c3)nn12 | 15 nM and 12 nM and 100 nM |
